Source: patent publication US20060211736A1, “GLUTARIMIDE-CONTAINING POLYKETIDE ANALOGS AND METHODS THEREOF” (Wisconsin Alumni Research Foundation, priority 2005, published 2006)

How the values were obtained:
[1] = stability in water / H2O-mediated rearrangement (HPLC); type: physicochemical
Method: (§1) To verify the identity of the shunt metabolites, purified 4 (30 mg) was incubated in H2O-DMSO (9:1), and the resultant products were isolated and subjected to spectroscopic analysis.
Large-scale Conversion of 4 to 1, 2, 3 and 5 in H2O. The purity of compound 4 was first analyzed by HPLC showing a single peak (purity >98%) and then confirmed by ^1H NMR spectrum (in CDCl3) showing no detectable contaminant. A solution of 4 (30 mg in 6 ml of DMSO) was then added to 55 ml Milli-Q H2O, and the resultant mixture was incubated at 37° C. for 2 hours. The reaction mixture was evaporated under high vacuo. The residue was subjected to silica gel flash column chromatography eluted with CHCl3-MeOH (from 10:0 to 9.4:0.6) to yield pure 1 (8 mg), 3 (9 mg), and a mixture of 2 and 5. The latter was further resolved by semi-preparative to afford pure 2 (6 mg) and 5 (4 mg). The ESI−MS, ^1H NMR and optical rotation data of compounds 1, 2, 3, and 5 were identical to those obtained from the corresponding compounds isolated from fermentation (the ^13C NMR spectrum of 1 was also measured, which is identical to that of 1 obtained from fermentation).
H2O-mediated rearrangement of 112-114 and 117-119. […]
Regioselective 1,4-reduction to access the reduced NK30424 scaffold. […] The reactions for 203, 209, and 210 were complete in 2, 8, and 12 hrs, respectively, as monitored by HPLC (yields>80%). […]

HCT-116 cells = conditions: same assay conditions for both substances; cited from earlier work
experimental tumors = conditions: efficacy comparable to or better than MTM C; cited from earlier work
[2] = stability in organic solvents and under fermentation condition (HPLC, 1H NMR); type: physicochemical; conditions: in CHCl3, DMSO, MeOH, and MeOH-H2O at 25° C. for 90 days
Method: as §1
Seed medium (50 mL) in a 250-mL flask was inoculated with spores of S. platensis and incubated on a rotary shaker at 250 rpm and 28° C. for 30 hr. The resultant seed culture (25 mL) was then inoculated into production medium (600 mL containing 70 g/L XAD-16 resins) in a 2-L flask, which was incubated on a rotary shaker at 250 rpm and 28° C. for 2 days. The combined production culture broth (7 L) was filtered through gauze sponges to capture the XAD-16 resins. The resins were washed with Milli-Q H2O, dried at room temperature, and eluted with anhydrous ethanol. The ethanol extract was evaporated under reduced pressure to yield an oily residue. The residue was first analyzed by HPLC-UV (PDA) and LC-ESI-MS to confirm the presence of the various congeners of 110. Although they can survive during fermentation and be stabilized in H2O upon absorption to resins, 110 and its congeners 112-119 undergo rapid rearrangement in aqueous solution. They are stable in most organic solvents such as CHCl3, EtOAc, hexane, and absolute ethanol at room temperature. Consequently, isolation of these metabolites was performed mainly by repeated silica gel flash column chromatography using two different solvent systems (CHCl3/MeOH and EtOAc/hexane).

[3] = system: K-ras transformed NIH/3T3 mouse fibroblasts; conditions: 0.4 ∝g/ml; cited from earlier work

Compound: CO[C@H]1/C=C/CC/C=C/C(=O)O[C@@H](/C(C)=C/[C@H](C)C(=O)CCCC2CC(=O)NC(=O)C2)[C@@H](C)[C@@H]1O [Compound 4, iso-Migrastatin]
- stability in aqueous solution (H2O-mediated rearrangement) [1]: rapid conversion

Compound: C/C(=C\[C@H](C)C(=O)C[C@H](O)CC1CC(=O)NC(=O)C1)[C@@H]1OC(=O)/C=C/CC/C=C/C=C\[C@@H]1C [Compound 104, lactimidomycin]
- IC50 value with HCT-116 cells (HCT-116 cells): 0.0014 µg/mL
- survival time of tumor-bearing mice (experimental tumors): prolonged the survival time

Compound: CO[C@@H](/C=C/CC/C=C/C(=O)O)[C@@H](O)[C@H](C)[C@@H](O)/C(C)=C/[C@H](C)C(=O)CCCC1CC(=O)NC(=O)C1 [Compound 3, Dorrigocin B]
- change of solutions upon HPLC and 1H NMR analyses [2]: no detectable change

Compound: CO[C@H]1/C=C/CC/C=C/C(=O)O[C@H]([C@H](C)C(=O)CCCC2CC(=O)NC(=O)C2)/C(C)=C\[C@@H](C)[C@@H]1O [Compound 1, Migrastatin]
- change of solutions upon HPLC and 1H NMR analyses [2]: no detectable change

Compound: CO[C@@H](/C=C/CC/C=C/C(=O)O)[C@@H](O)[C@H](C)/C=C(\C)[C@@H](O)[C@H](C)C(=O)CCCC1CC(=O)NC(=O)C1 [Compound 5, 13-epi-Dorrigocin A]
- change of solutions upon HPLC and 1H NMR analyses [2]: no detectable change

Compound: CO[C@@H](/C=C/CC/C=C/C(=O)O)[C@@H](O)[C@H](C)/C=C(\C)[C@H](O)[C@H](C)C(=O)CCCC1CC(=O)NC(=O)C1 [Compound 2, Dorrigocin A]
- change of solutions upon HPLC and 1H NMR analyses [2]: no detectable change
- reduction of the number of foci [3]: 74%

Compound: CO[C@@]12[C@H](COC(N)=O)C3=C(C(=O)C(C)=C(N)C3=O)N1C[C@@H]1N[C@@H]12 [MTM C]
- IC50 value with HCT-116 cells (HCT-116 cells): 0.8 µg/mL
